From PubChem BioAssay (NCI) come the findings set out here.

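Five compound concentrations were applied to cells in 96-well plates for 48 hours; endpoints were derived by simple linear interpolation of the resulting dose-response curve. TGI denotes the concentration required for complete inhibition of growth.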 Where only a bound is given, the exact number is not on record here.

Among the test systems are MDA-N; NCI-H522 lung; SF-295 CNS; M14 melanoma; OVCAR-8 ovarian; BT-549 breast; HCT-116 colon.
What all share (experiment): growth of human tumour cells (NCI), 48 h

For the molecule `O=[N+]([O-])c1ccc(O)c(/C=N/c2nc(-c3ccccc3)cs2)c1`, the TGI in the assay on MDA-N is over 83.6 µM; in the assay with NCI-H522 lung it was 38.1 µM; with SF-295 CNS it was over 95.9 µM; with M14 melanoma, over 92.1 µM; in the assay with OVCAR-8 ovarian, 68.4 µM; with BT-549 breast, 46.4 µM. In the assay with HCT-116 colon, the TGI was 80.9 µM.

Consider `O=[N+]([O-])c1cccc(Cl)c1Oc1ccc(S(=O)(=O)/N=C(\NO)Nc2ccc(Cl)cc2)cc1`, for which the TGI in the assay with MDA-N came to 26 µM; in the assay with NCI-H522 lung, 20.2 µM; in the assay with SF-295 CNS it was 34.4 µM; in the assay on M14 melanoma it was 27.4 µM; in the assay with OVCAR-8 ovarian, 39.6 µM; in the assay on BT-549 breast it was 29.9 µM. For the same molecule, the TGI in the assay on HCT-116 colon was found to be 25 µM.

As to `Cc1cc(N(CCC#N)CCC#N)ccc1/C=C1\SC(=S)NC1=O`, the TGI with MDA-N, in the assay with NCI-H522 lung, in the assay with SF-295 CNS, in the assay with M14 melanoma, in the assay with OVCAR-8 ovarian and with BT-549 breast was over 100 µM throughout. In addition, in the assay on HCT-116 colon, the TGI was over 100 µM.

Consider `CCOC(=O)C(=CN1CCNC1=S)C(=O)OCC`, for which the TGI in the assay with MDA-N, in the assay on NCI-H522 lung, in the assay on SF-295 CNS, in the assay on M14 melanoma, in the assay on OVCAR-8 ovarian and in the assay on BT-549 breast was over 100 µM throughout. In the assay on HCT-116 colon, the TGI was over 100 µM.

Regarding `CN(C)CC1CCC/C(=C\c2ccc(OC(=O)/C=C/c3ccc(Cl)c(Cl)c3)cc2)C1=O` (centres undefined), the TGI was 12.1 µM in the assay with MDA-N; 8.28 µM in the assay on NCI-H522 lung; 26.2 µM with SF-295 CNS; 24.9 µM in the assay on M14 melanoma; 28.5 µM in the assay with OVCAR-8 ovarian; 8.01 µM in the assay with BT-549 breast. Moreover, the TGI in the assay on HCT-116 colon is 14.5 µM.

Take `COC(=O)NC(Cc1ccccc1)NC(C)=O` (centres undefined): the TGI in the assay with MDA-N, in the assay on NCI-H522 lung, in the assay on SF-295 CNS, in the assay with M14 melanoma, in the assay on OVCAR-8 ovarian and with BT-549 breast was over 100 µM throughout. Further, the TGI with HCT-116 colon is over 100 µM.

Take `O=C(O)CNC(=O)c1ccc2cc(C(=O)N3CC(CCl)c4ccc([N+](=O)[O-])cc43)[nH]c2c1` (centres undefined): the TGI in the assay on MDA-N, in the assay with NCI-H522 lung, with SF-295 CNS, in the assay with M14 melanoma, with OVCAR-8 ovarian and with BT-549 breast was over 100 µM each time. This molecule gave a TGI in the assay on HCT-116 colon of over 100 µM.

Take `Cc1ccc2c(C(=O)c3c(C)n(CCN4CCOCC4)c4ccccc34)cccc2c1`: the TGI in the assay with MDA-N came out at 84.8 µM; in the assay on NCI-H522 lung, 29.3 µM; with SF-295 CNS, 37.1 µM; with M14 melanoma, 62 µM; in the assay on OVCAR-8 ovarian, 56.1 µM; in the assay with BT-549 breast, 51.6 µM. In the assay with HCT-116 colon, this molecule displayed a TGI of 40.9 µM.

Turning to `CN(Cc1cnc2nc(N)nc(N)c2n1)c1ccc(C(=O)NC(CCC(=O)NC(CC(P(=O)(O)O)P(=O)(O)O)C(=O)O)C(=O)O)cc1` (centres undefined), the TGI in the assay with MDA-N, in the assay with NCI-H522 lung, with SF-295 CNS, with M14 melanoma, with OVCAR-8 ovarian and with BT-549 breast was over 100 µM throughout. Moreover, in the assay on HCT-116 colon, the TGI was over 100 µM.

Consider `O=C1CS(=O)(=O)C(c2cccc(Oc3ccccc3)c2)N1c1ccccc1` (centres undefined), for which the TGI was 44.2 µM in the assay on MDA-N; 47.9 µM with NCI-H522 lung; over 100 µM with SF-295 CNS; 38.7 µM in the assay with M14 melanoma; over 100 µM with OVCAR-8 ovarian; 49.1 µM in the assay with BT-549 breast. This molecule gave a TGI with HCT-116 colon of 30.8 µM.

As to `COC([C@@H](OC(=O)c1ccccc1)[C@H](OC(=O)c1ccccc1)C(O)COC(=O)c1ccccc1)n1cc(C)c(=O)[nH]c1=O` (some centres undefined), the TGI with MDA-N was over 100 µM; with NCI-H522 lung, over 100 µM; in the assay on SF-295 CNS, 78.7 µM; with M14 melanoma, 76 µM; with OVCAR-8 ovarian, over 100 µM; with BT-549 breast, 77 µM. In addition, in the assay on HCT-116 colon, the TGI came out at 87.8 µM.

For `CC12ON(P(=O)(c3ccccc3)c3ccccc3)C(C)(c3ccccc31)c1ccccc12`, the TGI in the assay with MDA-N, with NCI-H522 lung, with SF-295 CNS, in the assay on M14 melanoma, in the assay on OVCAR-8 ovarian and in the assay on BT-549 breast was over 100 µM each time. This molecule returned a TGI in the assay with HCT-116 colon of over 100 µM.

On to `COc1c2ccsc2c(OC)c2ccsc12`, for which the TGI in the assay with MDA-N, in the assay on NCI-H522 lung, with SF-295 CNS, with M14 melanoma, in the assay on OVCAR-8 ovarian and with BT-549 breast was over 100 µM throughout. In the assay with HCT-116 colon, this molecule showed a TGI of over 100 µM.

As to `CC(=O)N(C(C)=O)n1c(Cc2ccc(C)cc2)nn(C(C)=O)c1=O`, the TGI with MDA-N, in the assay with NCI-H522 lung, with SF-295 CNS, in the assay on M14 melanoma, in the assay on OVCAR-8 ovarian and in the assay on BT-549 breast was over 100 µM in each case. Besides, in the assay on HCT-116 colon, the TGI is over 100 µM.

As to `CCCN(CCC)C1CCc2c(ccc3cc[nH]c23)C1` (centres undefined), the TGI was over 100 µM in the assay with MDA-N; over 100 µM in the assay with NCI-H522 lung; over 100 µM in the assay with SF-295 CNS; 32.4 µM with M14 melanoma; over 100 µM with OVCAR-8 ovarian; over 100 µM in the assay on BT-549 breast. In the assay on HCT-116 colon, this molecule had a TGI of over 100 µM.

As to `N=c1oc2ccccc2cc1-c1nc2ccccc2c(=O)[nH]1`, the TGI in the assay with MDA-N, in the assay with NCI-H522 lung, with SF-295 CNS, with M14 melanoma, in the assay with OVCAR-8 ovarian and in the assay with BT-549 breast was over 100 µM in each case. In the assay on HCT-116 colon, this molecule registered a TGI of over 100 µM.

In the case of `O=C(c1ccc(O)c([N+](=O)[O-])c1)c1ccc(O)c([N+](=O)[O-])c1`, the TGI with MDA-N, in the assay on NCI-H522 lung, in the assay with SF-295 CNS, in the assay with M14 melanoma, in the assay on OVCAR-8 ovarian and in the assay with BT-549 breast was over 100 µM in each case. Besides, the TGI in the assay on HCT-116 colon was over 100 µM.
